According to ChEMBL document CHEMBL4311944, “Discovery of 3-Oxabicyclo[4.1.0]heptane, a Non-nitrogen Containing Morpholine Isostere, and Its Application in Novel Inhibitors of the PI3K-AKT-mTOR Pathway” (J Med Chem, 2019):
In brackets after ≈: the same amount, converted by molar mass.

How the values were obtained:
[1] = Inhibition of PI3K/AKT/mTOR in human lung fibroblasts assessed as reduction in AKT phosphorylation at serine473 residue preincubated for 1 hr followed by PDGF-BB stimulation and measured after 10 mins by electrochemiluminescence method
[2] = molecular target: Phosphatidylinositol 4,5-bisphosphate 3-kinase catalytic subunit alpha isoform (Homo sapiens, UniProt P42336)
Description: Inhibition of PI3Kalpha (unknown origin) using PIP2 as substrate preincubated for 15 mins followed by substrate addition and measured after 1 hr by HTRF assay

[3] = molecular target: T1, Phosphatidylinositol 4,5-bisphosphate 3-kinase catalytic subunit delta isoform (Homo sapiens, UniProt O00329); experiment: Inhibition of PI3Kdelta (unknown origin) using PIP2 as substrate preincubated for 15 mins followed by substrate addition and measured after 1 hr by HTRF assay
T1 sequence (O00329 whole entry): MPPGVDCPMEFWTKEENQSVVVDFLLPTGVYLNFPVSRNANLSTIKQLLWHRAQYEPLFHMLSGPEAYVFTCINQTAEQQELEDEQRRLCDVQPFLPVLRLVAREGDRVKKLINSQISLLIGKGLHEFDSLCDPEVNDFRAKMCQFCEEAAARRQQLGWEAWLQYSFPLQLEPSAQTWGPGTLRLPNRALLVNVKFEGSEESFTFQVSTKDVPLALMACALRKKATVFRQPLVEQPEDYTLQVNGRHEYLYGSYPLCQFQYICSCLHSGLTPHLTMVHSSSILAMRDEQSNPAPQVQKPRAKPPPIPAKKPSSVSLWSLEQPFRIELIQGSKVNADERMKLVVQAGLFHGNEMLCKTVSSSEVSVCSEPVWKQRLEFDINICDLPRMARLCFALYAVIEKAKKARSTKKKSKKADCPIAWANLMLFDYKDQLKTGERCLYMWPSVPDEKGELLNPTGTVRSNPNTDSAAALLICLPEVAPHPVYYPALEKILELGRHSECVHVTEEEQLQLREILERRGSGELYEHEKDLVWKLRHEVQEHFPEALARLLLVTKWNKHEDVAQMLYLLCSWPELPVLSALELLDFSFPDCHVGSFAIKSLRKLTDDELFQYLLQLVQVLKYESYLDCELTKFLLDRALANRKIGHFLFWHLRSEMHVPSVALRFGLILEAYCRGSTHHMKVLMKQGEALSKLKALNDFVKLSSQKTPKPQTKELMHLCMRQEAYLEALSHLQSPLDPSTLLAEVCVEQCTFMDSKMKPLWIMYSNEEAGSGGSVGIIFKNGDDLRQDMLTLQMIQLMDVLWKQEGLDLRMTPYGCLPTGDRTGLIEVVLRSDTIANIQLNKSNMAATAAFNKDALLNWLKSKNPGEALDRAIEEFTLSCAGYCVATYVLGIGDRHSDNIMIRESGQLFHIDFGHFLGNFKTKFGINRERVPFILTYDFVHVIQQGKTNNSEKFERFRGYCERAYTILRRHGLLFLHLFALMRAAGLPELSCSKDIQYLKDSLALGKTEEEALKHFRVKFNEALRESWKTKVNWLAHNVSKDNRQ

[4] = Lipophilicity, logP of the compound by reversed phase column chromatography; assay type: physicochemical
[5] = Inhibition of ligand binding to mTORC1/mTORC2 in human HuT78 cells after 2 hrs by kinobead competition binding assay; assay type: cell-based
[6] = Kinetic solubility of the compound in pH 7.4 phosphate buffered saline measured after 1 hr; assay type: physicochemical; conditions: read-out: Kinetic_solubility

Phosphatidylinositol 4,5-bisphosphate 3-kinase catalytic subunit alpha isoform, sequence (P42336 whole entry, canonical isoform): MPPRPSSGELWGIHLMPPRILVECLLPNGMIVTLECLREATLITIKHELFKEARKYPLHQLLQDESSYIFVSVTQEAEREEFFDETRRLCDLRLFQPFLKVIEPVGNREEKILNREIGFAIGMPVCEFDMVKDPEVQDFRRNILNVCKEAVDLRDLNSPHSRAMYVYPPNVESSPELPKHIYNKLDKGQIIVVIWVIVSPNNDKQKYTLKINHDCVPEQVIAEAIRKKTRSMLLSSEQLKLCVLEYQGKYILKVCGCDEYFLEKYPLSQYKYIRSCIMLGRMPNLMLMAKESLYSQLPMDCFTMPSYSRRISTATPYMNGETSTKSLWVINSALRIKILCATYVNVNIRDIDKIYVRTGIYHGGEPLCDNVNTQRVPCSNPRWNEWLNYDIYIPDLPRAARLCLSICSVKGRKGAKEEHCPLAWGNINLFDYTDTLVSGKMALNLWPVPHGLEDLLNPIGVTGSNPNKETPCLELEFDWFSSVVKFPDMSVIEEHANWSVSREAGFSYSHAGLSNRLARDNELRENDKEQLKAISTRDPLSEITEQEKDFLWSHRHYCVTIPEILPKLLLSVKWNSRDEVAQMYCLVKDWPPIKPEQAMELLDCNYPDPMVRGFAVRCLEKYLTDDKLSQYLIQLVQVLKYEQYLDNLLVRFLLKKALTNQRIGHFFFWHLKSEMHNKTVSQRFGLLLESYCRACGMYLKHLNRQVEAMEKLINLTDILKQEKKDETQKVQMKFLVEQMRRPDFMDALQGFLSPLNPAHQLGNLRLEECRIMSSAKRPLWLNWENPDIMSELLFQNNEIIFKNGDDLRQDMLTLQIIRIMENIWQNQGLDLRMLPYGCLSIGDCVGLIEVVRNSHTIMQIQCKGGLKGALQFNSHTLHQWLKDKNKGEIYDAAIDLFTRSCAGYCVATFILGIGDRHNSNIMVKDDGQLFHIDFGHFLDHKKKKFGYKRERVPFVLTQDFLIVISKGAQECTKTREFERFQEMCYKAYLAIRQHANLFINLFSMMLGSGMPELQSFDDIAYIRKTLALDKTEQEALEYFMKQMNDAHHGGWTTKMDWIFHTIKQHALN

## CCNC(=O)Nc1ccc(-c2nccc(C3=CCOCC3)n2)cc1
[1]
  IC50: 3.98 µM
[2]
  IC50: 20 µM
[3]
  IC50: 15.8 µM
[4]
  logP: 3.6
[5]
  pIC50: 6
[6]
  solubility kinetic at 1 h: 24 µg/mL (≈ 74 µM)

## CCNC(=O)Nc1ccc(-c2nc(C(C)(C)S(C)(=O)=O)cc([C@]34CCOC[C@H]3C4)n2)cc1
[1]
  IC50: 0.0631 µM
[2]
  IC50: > 31.6 µM
[3]
  IC50: 25.1 µM
[4]
  logP: 4.7
[5]
  pIC50: 6.9
[6]
  solubility kinetic at 1 h: 74 µg/mL (≈ 161 µM)

## CCNC(=O)Nc1ccc(-c2nc(CS(C)(=O)=O)cc(N3CCOCC3)n2)cc1
[1]
  IC50: 1.26 µM
[4]
  logP: 2.7
[5]
  pIC50: 7.3

## CCNC(=O)Nc1ccc(-c2nc(C(C)(C)S(C)(=O)=O)cc([C@@]34CCOC[C@@H]3C4)n2)cc1
[1]
  IC50: 0.158 µM
[2]
  IC50: 25.1 µM
[3]
  IC50: 15.8 µM
[4]
  logP: 4.7
[5]
  pIC50: 6.6
[6]
  solubility kinetic at 1 h: 78 µg/mL (≈ 170 µM)

## C[C@H]1COCCN1c1cc(CS(C)(=O)=O)nc(-c2cccc(O)c2)n1
[1]
  IC50: 2.51 µM
[2]
  IC50: 1 µM
[3]
  IC50: 1 µM
[4]
  logP: 3.3
[5]
  pIC50: 6.7
[6]
  solubility kinetic at 1 h: 113 µg/mL (≈ 311 µM)

## CC(C)(c1cc([C@@]23CCOC[C@@H]2C3)nc(-c2ccc(NC(=S)NCCO)cc2)n1)S(C)(=O)=O
[1]
  IC50: 0.0794 µM
[2]
  IC50: 7.94 µM
[3]
  IC50: 25.1 µM
[4]
  logP: 3.9
[5]
  pIC50: 8.2
[6]
  solubility kinetic at 1 h: 145 µg/mL (≈ 296 µM)

## CNCC(=O)Nc1ccc(-c2nc(CS(C)(=O)=O)cc(N3CCOC[C@@H]3C)n2)cc1
[1]
  IC50: 0.501 µM
[2]
  IC50: 25.1 µM
[3]
  IC50: 12.6 µM
[4]
  logP: 2.6
[5]
  pIC50: 7.7
[6]
  solubility kinetic at 1 h: 90 µg/mL (≈ 208 µM)

## C[C@H]1COCCN1c1cc(C(C)(C)S(C)(=O)=O)nc(-c2cccc(O)c2)n1
[1]
  IC50: 1.26 µM
[2]
  IC50: 3.16 µM
[3]
  IC50: 3.16 µM
[4]
  logP: 4.4
[5]
  pIC50: 5.7
[6]
  solubility kinetic at 1 h: 121 µg/mL (≈ 309 µM)

## CNCC(=O)Nc1ccc(-c2nc(CS(C)(=O)=O)cc([C@]34CCOC[C@H]3C4)n2)cc1
[1]
  IC50: 0.794 µM
[2]
  IC50: > 31.6 µM
[3]
  IC50: > 31.6 µM
[4]
  logP: 3.1
[5]
  pIC50: 7.4
[6]
  solubility kinetic at 1 h: 158 µg/mL (≈ 367 µM)

## CS(=O)(=O)Cc1cc([C@@]23CCOC[C@@H]2C3)nc(-c2cccc(O)c2)n1
[1]
  IC50: 5.01 µM
[2]
  IC50: 7.94 µM
[3]
  IC50: 3.98 µM
[4]
  logP: 3.7
[5]
  pIC50: 5.9
[6]
  solubility kinetic at 1 h: 145 µg/mL (≈ 402 µM)

## CC(C)(c1cc([C@@]23CCOC[C@@H]2C3)nc(-c2cccc(O)c2)n1)S(C)(=O)=O
[1]
  IC50: 5.01 µM
[2]
  IC50: 10 µM
[3]
  IC50: 7.94 µM
[4]
  logP: 4.8
[5]
  pIC50: < 5.4
[6]
  solubility kinetic at 1 h: 148 µg/mL (≈ 381 µM)

## CCNC(=O)Nc1ccc(-c2nc(CS(C)(=O)=O)cc([C@@]34CCOC[C@@H]3C4)n2)cc1
[1]
  IC50: 1.58 µM
[2]
  IC50: > 31.6 µM
[3]
  IC50: 25.1 µM
[4]
  logP: 3.6
[5]
  pIC50: 6.1
[6]
  solubility kinetic at 1 h: 77 µg/mL (≈ 179 µM)

## Oc1cccc(-c2nccc([C@@]34CCOC[C@@H]3C4)n2)c1
[1]
  IC50: 10 µM
[2]
  IC50: 6.31 µM
[3]
  IC50: 3.16 µM
[4]
  logP: 4
[5]
  pIC50: < 3
[6]
  solubility kinetic at 1 h: 123 µg/mL (≈ 458 µM)

## CCNC(=O)Nc1ccc(-c2nc(N3CCOC[C@@H]3C)cc(C(C)(C)S(C)(=O)=O)n2)cc1
[1]
  IC50: 0.0501 µM
[2]
  IC50: 7.94 µM
[3]
  IC50: 7.94 µM
[4]
  logP: 4.4
[5]
  pIC50: 7.3
[6]
  solubility kinetic at 1 h: 130 µg/mL (≈ 282 µM)

## CCNC(=O)Nc1ccc(-c2nc(CS(C)(=O)=O)cc(N3CCOC[C@@H]3C)n2)cc1
[1]
  IC50: 0.316 µM
[2]
  IC50: 15.8 µM
[3]
  IC50: 20 µM
[4]
  logP: 3.2
[5]
  pIC50: 7.1
[6]
  solubility kinetic at 1 h: 212 µg/mL (≈ 489 µM)

## CCNC(=O)Nc1ccc(-c2nc(CS(C)(=O)=O)cc([C@]34CCOC[C@H]3C4)n2)cc1
[1]
  IC50: 0.501 µM
[2]
  IC50: > 31.6 µM
[3]
  IC50: 7.94 µM
[4]
  logP: 3.6
[5]
  pIC50: 7
[6]
  solubility kinetic at 1 h: 96 µg/mL (≈ 223 µM)

## CNCC(=O)Nc1ccc(-c2nc(C(C)(C)S(C)(=O)=O)cc([C@@]34CCOC[C@@H]3C4)n2)cc1
[1]
  IC50: 0.158 µM
[2]
  IC50: 25.1 µM
[3]
  IC50: 1.26 µM
[4]
  logP: 4.3
[5]
  pIC50: 7.3
[6]
  solubility kinetic at 1 h: 257 µg/mL (≈ 560 µM)

## C[C@H]1COCCN1c1ccnc(-c2cccc(O)c2)n1
[1]
  IC50: 3.98 µM
[2]
  IC50: 1.58 µM
[3]
  IC50: 1 µM
[4]
  logP: 3.3
[5]
  pIC50: 5.7
[6]
  solubility kinetic at 1 h: 119 µg/mL (≈ 439 µM)

## CNCC(=O)Nc1ccc(-c2nc(C(C)(C)S(C)(=O)=O)cc([C@]34CCOC[C@H]3C4)n2)cc1
[1]
  IC50: 0.1 µM
[2]
  IC50: > 31.6 µM
[3]
  IC50: 12.6 µM
[4]
  logP: 4.3
[5]
  pIC50: 7.6
[6]
  solubility kinetic at 1 h: 217 µg/mL (≈ 473 µM)

## Oc1cccc(-c2nccc(N3CCOCC3)n2)c1
[1]
  IC50: 2 µM
[2]
  IC50: 0.501 µM
[3]
  IC50: 0.251 µM
[4]
  logP: 2.7
[5]
  pIC50: 5.9
[6]
  solubility kinetic at 1 h: 107 µg/mL (≈ 416 µM)

## Oc1cccc(-c2nccc(C34CCOCC3C4)n2)c1 (configuration not stated)
[1]
  IC50: 7.94 µM
[2]
  IC50: 6.31 µM
[3]
  IC50: 3.98 µM
[4]
  logP: 4.1
[5]
  pIC50: 4.8
[6]
  solubility kinetic at 1 h: 102 µg/mL (≈ 380 µM)

## CNCC(=O)Nc1ccc(-c2nc(CS(C)(=O)=O)cc([C@@]34CCOC[C@@H]3C4)n2)cc1
[1]
  IC50: 1.26 µM
[2]
  IC50: > 31.6 µM
[3]
  IC50: 15.8 µM
[4]
  logP: 3.1
[5]
  pIC50: 7.1
[6]
  solubility kinetic at 1 h: 167 µg/mL (≈ 388 µM)

## CS(=O)(=O)Cc1cc(C2=CCOCC2)nc(-c2cccc(O)c2)n1
[1]
  IC50: 0.794 µM
[2]
  IC50: 6.31 µM
[3]
  IC50: 1.58 µM
[4]
  logP: 3.3
[5]
  pIC50: 6.4
[6]
  solubility kinetic at 1 h: 27 µg/mL (≈ 77.9 µM)

## Oc1cccc(-c2nccc([C@]34CCOC[C@H]3C4)n2)c1
[1]
  IC50: 7.94 µM
[2]
  IC50: 2.51 µM
[3]
  IC50: 1.26 µM
[4]
  logP: 4
[5]
  pIC50: 5.1
[6]
  solubility kinetic at 1 h: 141 µg/mL (≈ 525 µM)

## CS(=O)(=O)Cc1cc([C@]23CCOC[C@H]2C3)nc(-c2cccc(O)c2)n1
[1]
  IC50: 3.16 µM
[2]
  IC50: 20 µM
[3]
  IC50: 15.8 µM
[4]
  logP: 3.7
[5]
  pIC50: 5.8
[6]
  solubility kinetic at 1 h: 75 µg/mL (≈ 208 µM)
